Read-outs that look alike come from different tables or passages of the source. Each block holds one compound with its values, some of them ahead of it.
Key:
[1] = Study 1002-012: effect of steady-state ETC-1002 on single-dose PK of simvastatin, pravastatin, rosuvastatin
Experimental: Serial PK blood samples were collected through the morning of Day −3. Starting on Day 1, all subjects received oral ETC-1002, 240 mg, once daily for 16 days. On the morning of Day 12, in addition to ETC-1002, subjects received a single dose of a statin drug, based on their cohort assignment; serial PK blood samples were collected.

[2] = clinical pharmacokinetics of ETC-1002; format: in vivo, human
Experimental: (§1) The entire clinical program for ETC-1002 (conducted between 2009 and 2015) has included approximately 1000 subjects and patients, with approximately 700 receiving ETC-1002 doses ranging from 2.5 up to 240 mg/day (multiple doses) for up to 12 weeks. There are 15 completed clinical studies (nine Phase 1 and six Phase 2), and integrated data summaries are based on the 6 completed Phase 2 studies.

patients [3] = assay: 6 integrated Phase 2 studies (safety, TEAEs, SAEs); format: in vivo, human
Experimental: as §1
The greatest number of patients experiencing at least 1 TEAE among ETC-1002-treated groups occurred in the ETC-1002 40-mg dose group (75.6%); this frequency was similar to the frequency of patients experiencing at least 1 TEAE in the placebo group (74.2%).

[4] = Study 1002-007: effect of ETC-1002 on the PK of atorvastatin
Experimental: All patients started ETC-1002 at a dose of 60 mg/day, which was up-titrated every 2 weeks to 120 mg/day, then 180 mg/day, then 240 mg/day.

[5] = in-vitro and in-vivo genetic toxicology assays
patients [6] = assay: integrated analysis of six Phase 2 studies (efficacy); format: in vivo, human
Experimental: as §1

[7] = pivotal 6-month rat study; details: both sexes, in vivo, oral, male and female rats, read-out: no-observed-adverse-effect level (NOAEL) dose
Experimental: (§2) In the pivotal 6-month rat study, the no-observed-adverse-effect level (NOAEL) dose was 30 mg/kg/day in male and female rats and the corresponding area under the curve during 24 hours (AUC0-24) values of the sum of ETC-1002 and ESP15228 were up to 528 μg·hr/mL. In the pivotal 12-month monkey study, the NOAEL dose was 60 mg/kg/day and the corresponding AUC0-24 value of the sum of ETC-1002 and ESP15228 was up to 4478 μg·hr/mL.

[8] = safety pharmacology studies; details: over the range of exposures intended for clinical studies
major drug transporters = assay: in vitro drug transporter inhibition; format: in vitro ADME
[9] = food-effect/bioequivalence study; parameters: species or system human; details: in vivo
[10] = pivotal 12-month monkey study; details: in vivo, oral, read-out: NOAEL dose
Experimental: as §2

mice, rats, and monkeys = assay: oral toxicology studies up to 12 months; format: in vivo
Text: In toxicology studies, evaluations of ETC-1002 in mice, rats, and monkeys in oral studies up to 12 months in duration have been completed. […] Routine clinical laboratory parameters will continue to be monitored carefully in clinical trials.

[11] = tested on: major cytochrome P450 (CYP) enzymes; assay: in vitro CYP inhibition/induction studies; format: in vitro ADME; details: at clinically relevant plasma concentrations
[12] = tested on: rodent models of dyslipidemia; assay: primary pharmacology in rodent models of dyslipidemia; format: in vivo
Experimental: The primary pharmacology of ETC-1002 was evaluated in several well-characterized and predictive rodent models of dyslipidemia. In these studies, ETC-1002 lowered LDL-C and triglycerides (TGs) and increased high-density lipoprotein cholesterol (HDL-C).

QT/QTc = assay: thorough QT/QTc (TQT) study (1002-022); format: in vivo, human; details: ETC-1002 240 mg daily for 9 days
[13] = drug interaction with metformin or Ortho-Novum 1/35; format: in vivo, human

- mean t1/2 ([2]; human, in vivo): 20 to 33 h
- Tmax ([2]; oral): 7 h
SMILES: CC(C)(CCCCCC(=O)CCCCCC(C)(C)C(=O)O)C(=O)O [ESP15228]
- plasma concentrations and PK parameters ([1]; after 12th daily 240-mg dose of ETC-1002 with single dose simvastatin 20 mg, pravastatin 40 mg or rosuvastatin 10 mg): consistent with those in previous monotherapy studies
- Cmax dose proportionality ([2]; human, in vivo): increase in proportion to increasing dose

SMILES: CC(C)(CCCCCC(O)CCCCCC(C)(C)C(=O)O)C(=O)O [ETC-1002, 8-hydroxy-2,2,14,14 tetramethylpentadecanedioic acid]
- deaths (patients [3]; ETC-1002 120 mg group, Study 1002-008, Study Day 98, considered possibly related to study drug): One patient died with cause unknown
- frequency of TEAEs, SOC infections and infestations (patients [3]; human, in vivo): 11.6-25%
- patients experiencing at least 1 TEAE (patients [3]; human, in vivo): 75.6%
- dose-related trends in the frequency of TEAEs (patients [3]; in vivo): there did not appear to be any dose-related trends
- dose-related trends in the frequency of myalgia (patients [3]; in vivo): no dose-related trends
- muscle-related SAEs (patients [3]; in vivo): no muscle-related SAEs
- other measures of safety including laboratory results (patients [3]; in vivo): no clinically significant trends
- reports of rhabdomyolysis (patients [3]; in vivo): no reports
- safety profile (patients [3]; in vivo): excellent safety profile
- LDL-C lowering ([4]; ETC-1002 in combination with atorvastatin 10 mg vs atorvastatin alone): incremental LDL-C lowering beyond atorvastatin alone
- clastogenicity [5]: non-clastogenic
- mutagenicity [5]: non-mutagenic
- LDL-C, placebo-adjusted LS means for percent change from baseline (patients [6]; 180 mg on top of stable statin therapy): ~22%
- LDL-C, placebo-adjusted LS means for percent change from baseline (patients [6]; ETC-1002 180 mg monotherapy): approximately 32%
- non-HDL-C, TC, LDL particle number and apoB (patients [6]; accompanying reduced LDL-C): corresponding reductions
- effect on HDL-C and TGs (patients [6]; in vivo): generally neutral
- NOAEL at 6 months [7]: 30 mg/kg/day
- risks for patients identified in safety pharmacology [8]: did not identify any significant risks
- inhibition of major drug transporters (major drug transporters): does not appear to inhibit
- food effect [9]: can be taken without regard to food
- NOAEL at 12 months [10]: 60 mg/kg/day
- central nervous system, respiratory, or cardiovascular liabilities (mice, rats, and monkeys; oral, up to 12 months, mice, rats, monkeys): No significant central nervous system, respiratory, or cardiovascular liabilities have been identified
- target organs in repeat-dose studies (mice, rats, and monkeys; rats and monkeys, changes reversible following cessation of treatment): liver and kidney
- inhibition or induction of major CYP enzymes [11]: neither an inhibitor nor inducer
- LDL-C [12]: lowered
- high-density lipoprotein cholesterol (HDL-C) [12]: increased
- triglycerides (TGs) [12]: lowered
- QT interval duration (QT/QTc): does not prolong
- change in QTc (QT/QTc): no significant change
- effect on heart rate and PR and QRS intervals (QT/QTc): no clinically significant effect
- drug interaction ([13]; combination of ETC-1002 and Ortho-Novum 1/35 (combined oral contraceptive)): No drug interaction
- drug interaction ([13]; combination of ETC-1002 and metformin): No drug interaction
- Cmax dose proportionality ([2]; human, in vivo): increase in proportion to increasing dose
- Tmax ([2]; human, in vivo, oral, read-out: Tmax): < 4 h
- half-life ([2]; human, in vivo, oral, read-out: mean t1/2): 15 to 27 h
- systemic exposure, AUCtau,ss, dose proportionality ([2]; up to 120 mg daily, linear from 140 to 220 mg daily doses): slightly more than dose-proportional increase

SMILES: CC(C)c1c(C(=O)Nc2ccccc2O)c(-c2ccccc2)c(-c2ccc(F)cc2)n1CC[C@@H](O)C[C@@H](O)CC(=O)O [ortho-hydroxy atorvastatin]
- higher exposure than atorvastatin alone ([4]; 10 mg atorvastatin plus 120 mg ETC-1002 daily vs 10 mg atorvastatin alone): approximately 60%
- exposure versus atorvastatin alone ([4]; 10 mg atorvastatin plus ETC-1002 240 mg): higher exposure

- exposure (AUC0-inf) increased ([1]; single dose simvastatin 20 mg with steady-state ETC-1002 240 mg vs simvastatin alone, healthy subjects): 29%
SMILES: CCC(C)(C)C(=O)O[C@H]1C[C@@H](C)C=C2C=C[C@H](C)[C@H](CC[C@@H]3C[C@@H](O)CC(=O)O3)[C@H]21 [simvastatin, reference compound]

From patent US11116739B2, “Fixed dose combinations and formulations comprising ETC1002 and one or more statins and methods of treating or reducing cardiovascular disease” (Esperion Therapeutics, Inc., priority 2015, dated 2021)
